# Test results from patent US9112158B1, “Asymmetric styrene derivatives having carbazole and aniline and organic light emitting diode using the same” (National Tsing Hua University, priority 2014, dated 2015).
# Test: solubility of the compound in toluene
# Format: physicochemical
row,Solubility,SMILES
1,>1 wt %,"C(=C\c1ccc(N(c2ccccc2)c2ccccc2)cc1)/c1ccc(-c2ccc(/C=C/c3ccc4c(c3)c3ccccc3n4-c3ccccc3)cc2)cc1 [PCzDPA, N,N-diphenyl-4-[(E)-2-(4-{4-[(E)-2-(9-phenyl-9H-carbazol-3-yl)ethenyl]phenyl}phenyl)ethenyl]aniline]"
2,>1 wt %,"C(=C\c1ccc(N(c2ccccc2)c2cccc3ccccc23)cc1)/c1ccc(-c2ccc(/C=C/c3ccc4c(c3)c3ccccc3n4-c3ccccc3)cc2)cc1 [PCzNA, N-phenyl-N-{4-[(E)-2-(4-{4-[(E)-2-(9-phenyl-9H-carbazol-3-yl)ethenyl]phenyl}phenyl)ethenyl]phenyl}naphthalen-1-amine]"
